Source: PubChem BioAssay AID330 (DTP/NCI, 2004)
“And” between values parts separate entries of the source, which are not always exact repeats. Equal entries are not always repeated. Inconclusive results and toxic doses are left out. The calls were made as follows: active = survival T/C of 150% or more; inactive = T/C below 125% in these data.

Tested on: P388 leukemia ip, CD2F1 mice, survival T/C
Assay: NCI In Vivo Anticancer Drug Screen. Data for tumor model P388 Leukemia (intraperitoneal) in CD2F1 (CDF1) mice
Conditions: endpoint: median survival time, higher = longer survival
How it was run: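 Mice carrying the transplanted tumor received test compound or vehicle. Survival was recorded in each group, and the value is the treated-group measurement divided by that of the vehicle-treated control group.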

[1] = dose: 50.0 mg/kg/injection, schedule: Q01DX009 (ip), vehicle: Klucel (hydroxypropylcellulose) (HPC)
[2] = dose: 100.0 mg/kg/injection, schedule: Q01DX009 (ip), vehicle: Klucel (hydroxypropylcellulose) (HPC)
[3] = dose: 200.0 mg/kg/injection, schedule: Q01DX009 (ip), vehicle: Klucel (hydroxypropylcellulose) (HPC)
[4] = dose: 50.0 mg/kg/injection, schedule: Q01DX009 (ip), vehicle: saline
[5] = dose: 100.0 mg/kg/injection, schedule: Q01DX009 (ip), vehicle: saline
[6] = dose: 200.0 mg/kg/injection, schedule: Q01DX009 (ip), vehicle: saline
[7] = dose: 25.0 mg/kg/injection, schedule: Q01DX009 (ip), vehicle: saline with Tween-80
[8] = dose: 50.0 mg/kg/injection, schedule: Q01DX009 (ip), vehicle: saline with Tween-80
[9] = dose: 100.0 mg/kg/injection, schedule: Q01DX009 (ip), vehicle: saline with Tween-80
[10] = dose: 200.0 mg/kg/injection, schedule: Q01DX009 (ip), vehicle: saline with Tween-80
[11] = dose: 12.5 mg/kg/injection, schedule: Q01DX009 (ip), vehicle: saline with Tween-80
[12] = dose: 60.0 mg/kg/injection, schedule: Q01DX005 (ip), vehicle: saline with Tween-80
[13] = dose: 120.0 mg/kg/injection, schedule: Q01DX005 (ip), vehicle: saline with Tween-80
[14] = dose: 240.0 mg/kg/injection, schedule: Q01DX005 (ip), vehicle: saline with Tween-80
[15] = dose: 50.0 mg/kg/injection, schedule: Q01DX005 (ip), vehicle: saline with Tween-80
[16] = dose: 100.0 mg/kg/injection, schedule: Q01DX005 (ip), vehicle: saline with Tween-80
[17] = dose: 50.0 mg/kg/injection, schedule: Q01DX005 (ip), vehicle: Klucel (hydroxypropylcellulose) (HPC)
[18] = dose: 100.0 mg/kg/injection, schedule: Q01DX005 (ip), vehicle: Klucel (hydroxypropylcellulose) (HPC)
[19] = dose: 200.0 mg/kg/injection, schedule: Q01DX005 (ip), vehicle: Klucel (hydroxypropylcellulose) (HPC)
[20] = dose: 100.0 mg/kg/injection, schedule: Q01DX001 (ip), vehicle: saline with Tween-80
[21] = dose: 200.0 mg/kg/injection, schedule: Q01DX001 (ip), vehicle: saline with Tween-80

Measured: T/C

CCN(CC)C1=C/CC/C(c2ccccc2)=N/N=C\1c1ccccc1
inactive: dose: 60.0 mg/kg/injection, schedule: Q01DX005 (ip), vehicle: Klucel (hydroxypropylcellulose) (HPC) 89 % of control | dose: 120.0 mg/kg/injection, schedule: Q01DX005 (ip), vehicle: Klucel (hydroxypropylcellulose) (HPC) 95 % of control | dose: 240.0 mg/kg/injection, schedule: Q01DX005 (ip), vehicle: Klucel (hydroxypropylcellulose) (HPC) 97 % of control

COc1ccc(-n2nnnc2N(C)c2ccccc2)cc1
inactive: dose: 50.0 mg/kg/injection, schedule: Q04DX003 (ip), vehicle: saline with Tween-80 100 % of control | dose: 100.0 mg/kg/injection, schedule: Q04DX003 (ip), vehicle: saline with Tween-80 94 % of control | dose: 200.0 mg/kg/injection, schedule: Q04DX003 (ip), vehicle: saline with Tween-80 96 % of control

CCCCN1CCN(c2ccc([N+](=O)[O-])c3no[n+]([O-])c23)CC1
inactive: dose: 8.0 mg/kg/injection, schedule: Q04DX003 (ip), vehicle: suspension in saline 102 % of control | dose: 16.0 mg/kg/injection, schedule: Q04DX003 (ip), vehicle: suspension in saline 99 % of control | dose: 32.0 mg/kg/injection, schedule: Q04DX003 (ip), vehicle: suspension in saline 108 % of control

O=C(Oc1ccccc1)N1CCCC(O)C1 (stereo unspecified)
inactive: [1] 96 % of control | [2] 105 % of control | [3] 100 % of control

Fc1cccc(CSC(=S)Nc2ccc(F)c(F)c2)c1
inactive: [4] 116 % of control | [5] 105 % of control | [6] 115 % of control

Clc1ccc(/C=N\N=C\c2ccc(Cl)c(Cl)c2)cc1Cl
inactive: [7] 95 % of control | [8] 100 % of control | [9] 110 % of control | [10] 90 % of control | dose: 400.0 mg/kg/injection, schedule: Q01DX009 (ip), vehicle: saline with Tween-80 90 % of control

C(=Nc1ccc2ccccc2c1)Nc1ccc2ccccc2c1.[Cu+2]
inactive: dose: 25.0 mg/kg/injection, schedule: Q01DX009 (ip), vehicle: saline 115 % of control | [8] 117 % of control

Cc1c(-c2ccccc2)ccnc1/C=N/NC(=S)Nc1ccccc1
inactive: dose: 1.56 mg/kg/injection, schedule: Q01DX009 (ip), vehicle: saline 89 % of control | dose: 3.12 mg/kg/injection, schedule: Q01DX009 (ip), vehicle: saline 92 % of control | dose: 6.25 mg/kg/injection, schedule: Q01DX009 (ip), vehicle: saline 88 % of control and 95 % of control | [7] 89 % of control | [8] 89 % of control | [4] 86 % of control

CN(C)c1ccc(C=C2c3ccccc3C(=O)c3ccccc32)c(Cl)c1
inactive: [8] 100 % of control | [9] 91 % of control | [10] 94 % of control

N#Cc1cccc[n+]1Cc1ccc([N+](=O)[O-])cc1
inactive: [11] 95 % of control | [7] 109 % of control | [8] 118 % of control

Cc1ccc2c(I)cc(I)c(O)c2n1
inactive: [1] 107 % of control | [2] 102 % of control | [3] 100 % of control

O=C1C2C(C(=O)N1c1ccccc1)C1(c3cccnc3)NC(=O)C2(Cc2cccnc2)c2ccccc21 (stereo unspecified)
inactive: dose: 15.0 mg/kg/injection, schedule: Q01DX005 (ip), vehicle: saline with Tween-80 104 % of control | dose: 30.0 mg/kg/injection, schedule: Q01DX005 (ip), vehicle: saline with Tween-80 100 % of control and 96 % of control | [12] 104 % of control and 88 % of control and 91 % of control | [13] 88 % of control | [14] 86 % of control

CN(C)C(=S)n1c(=S)nc(N(C)C)sc1=S
inactive: dose: 12.5 mg/kg/injection, schedule: Q01DX005 (ip), vehicle: saline with Tween-80 103 % of control | dose: 25.0 mg/kg/injection, schedule: Q01DX005 (ip), vehicle: saline with Tween-80 108 % of control | [15] 108 % of control and 113 % of control | [16] 109 % of control

CCCC(O)C(C(=O)OCC)C(=O)OCC (stereo unspecified)
inactive: [4] 95 % of control | [5] 95 % of control | [6] 94 % of control

Cn1nc(-c2ccccc2)c([N+](=O)[O-])c1NCc1ccccc1
inactive: [17] 97 % of control | [18] 100 % of control | [19] 97 % of control

COc1cc(/C=C(\Cc2ccc(OC)c(OCc3ccccc3)c2)[N+](=O)[O-])ccc1OCc1ccccc1
inactive: [1] 89 % of control | [2] 87 % of control | [3] 88 % of control

O=C(C=C(C(F)(F)F)C(F)(F)F)c1cccc(S(=O)(=O)F)c1
inactive: dose: 3.13 mg/kg/injection, schedule: Q04DX003 (ip), vehicle: saline 100 % of control | dose: 6.25 mg/kg/injection, schedule: Q04DX003 (ip), vehicle: saline 100 % of control | dose: 12.5 mg/kg/injection, schedule: Q04DX003 (ip), vehicle: saline 95 % of control

Clc1ccccc1N=NN1CCN(c2ccccc2)CC1
inactive: [8] 88 % of control | [9] 102 % of control | [10] 93 % of control

CC(=O)Nc1ccccc1OC(=O)NC(C)(C)C
inactive: [12] 97 % of control | [13] 100 % of control | [14] 90 % of control

CCOc1c(N=Nc2ccccc2OC)c(-c2ccccc2)nn1C(=S)S
inactive: [15] 102 % of control | [16] 101 % of control | dose: 200.0 mg/kg/injection, schedule: Q01DX005 (ip), vehicle: saline with Tween-80 108 % of control

CCC1COC(Nc2cccc3c2CCCC3)=N1 (stereo unspecified)
inactive: [20] 95 % of control | [21] 90 % of control

OCCN1CCN(CCCN2c3cc(Cl)ccc3Sc3ccsc32)CC1
inactive: [17] 97 % of control | [18] 97 % of control

OC(c1ccccc1)C(O)C(c1ccccc1)N1CCCCC1 (stereo unspecified)
inactive: [5] 92 % of control | [6] 92 % of control

O=[N+]([O-])c1cc(F)ccc1O
inactive: dose: 6.25 mg/kg/injection, schedule: Q01DX009 (ip), vehicle: saline with Tween-80 95 % of control | [11] 100 % of control | [7] 104 % of control

COC(=O)[C@@H]1CON(Cc2ccccc2)C1CC1(C)OCCO1 (stereo partly specified)
inactive: [12] 103 % of control | [13] 104 % of control | [14] 109 % of control

C[n+]1ccc(NN)cc1
inactive: [17] 100 % of control | [18] 103 % of control | [19] 101 % of control

Cc1c2cc(Cl)ccc2c(CSC(=N)N)c2ccc3ccccc3c12
inactive: dose: 50.0 mg/kg/injection, schedule: Q04DX002 (ip), vehicle: Klucel (hydroxypropylcellulose) (HPC) 100 % of control | dose: 100.0 mg/kg/injection, schedule: Q04DX002 (ip), vehicle: Klucel (hydroxypropylcellulose) (HPC) 102 % of control | dose: 200.0 mg/kg/injection, schedule: Q04DX002 (ip), vehicle: Klucel (hydroxypropylcellulose) (HPC) 107 % of control

CN(C)c1ccc(N=C2C(c3ccccc3)=[N+]([O-])c3ccccc32)cc1
inactive: [12] 93 % of control | [13] 93 % of control | [14] 100 % of control

C=Cc1ccc(NC(=O)CCn2ccc(N)nc2=O)cc1
inactive: [20] 102 % of control | [21] 102 % of control | dose: 400.0 mg/kg/injection, schedule: Q01DX001 (ip), vehicle: saline with Tween-80 103 % of control
